Laboratory results published in patent publication US10053457B2, “Hydroxyalkyl-piperazine derivatives as CXCR3 receptor modulators” (IDORSIA PHARMACEUTICALS LTD, priority 2015, dated 2018).

Legend:
Type in all cases: cell-based
[1] = target: CXCR3 (Homo sapiens (Human), UniProt P49682); assay: Receptor internalization assay in human whole blood (CXCR3 surface expression on CD4 positive cells, CXCL10); conditions: final CXCL10 9 nM, 30 min at 37° C., mean values
Protocol: Diluted compounds are then mixed with an equal volume of CXCL10 (Peprotech) diluted in PBS. Anticoagulated venous human whole blood is added to the mixture, which is then incubated in a CO2 incubator at 37° C. to allow for ligand mediated receptor internalization (final CXCL10 concentration is 9 nM). After 30 min, the blood is mixed with fluorescently labeled CXCR3 and CD4 specific antibodies (Becton Dickinson) and incubated on ice for 10 minutes. Samples are then mixed with BD FACS Lysing Solution (Becton Dickinson) in order to eliminate red blood cells. After washing the cells with PBS containing 0.5% BSA, the samples are then analyzed in a flow cytometer (FACS Canto II, Becton Dickinson). For data analysis using FACSDiva software (Becton Dickinson), the mean fluorescence corresponding to CXCR3 cell surface expression was determined on CD4 positive cells. The program GraphPad Prism or similar software is used to fit the data to a single site dose response curve and to calculate IC50 values.
(§1) In the case where IC50 values have been determined several times for the same compound, mean values are given.

[2] = target: hERG K channel (Homo sapiens (Human), UniProt Q12809); assay: hERG Q-Patch assay; conditions: CHO cells expressing hERG, K+ tail current 3 min after application, mean of two or three experiments
Protocol: Compounds are evaluated for block of the hERG K channel using CHO cells stably expressing the hERG gene (accession number U04270, bSys, Witterswil, Switzerland) and the QPatch robotic platform (Sophion, Ballerup, Denmark) in single-cell mode at room temperature. Cells are grown in culture flasks at 37° C. in 5% CO2, in culture medium (Ham's F-12 Nutrient Mixture, Invitrogen 21765-029) supplemented with 9% (v/v) fetal calf serum, 0.9% Penicillin/Streptomycin (10,000 U/mL, Invitrogen 15140148), 100 μg/mL Hygromycin B (Invitrogen 10687010). When the cells are ˜80% confluent (every 2-3 days), they are either split for further culture or used for electrophysiology. For further culture, cells are detached with 0.25% Trypsin EDTA solution (Invitrogen 25200-056) and a fraction of the cells (10-30%) is reseeded in culture medium. For electrophysiology, on the experimental day, cells are detached with 0.25% Trypsin EDTA solution and all cells are suspended in suspension medium (293 SFM II, Invitrogen 11686-029) supplemented with 20 mM HEPES and 0.04 mg/mL Trypsin inhibitor. Cells are kept in suspension medium at 32-35° C. in the QPatch robot until use, at which time aliquots are transferred to the extracellular solution (in mM: NaCl 150; KCl 4; CaCl2 1.2; MgCl2 1; HEPES 10; pH 7.4 with NaOH) containing 0.3% v/v DMSO and applied to the test plates. K^+ currents are measured with the patch-voltage-clamp technique in the whole-cell configuration with the internal solution (in mM: KCl, 140; NaCl, 10; MgCl2, 1; HEPES, 10: EGTA, 5; pH=7.2 with KOH). Currents are low-pass filtered using the internal Bessel filter of the QPatch robot with a cut-off frequency of 2 kHz and are digitized at 10 kHz. K^+ tail currents are produced from a holding voltage of −80 mV by a 500-ms depolarization to +20 mV followed by a 500-ms repolarization to −40 mV; tail current amplitudes are measured at the end of the repolarization to −40 mV. The pulse pattern is repeated every 10 sec during the experiment, baseline K^+ current is measured after 3 min in extracellular solution, test-solution containing compound is then applied, and K^+ current in presence of compound is measured 3 minutes after application to the cells. The respective test-solution is prepared by (1) dissolving the test-compound in pure DMSO, (2) diluting this DMSO solution in extracellular solution, and (3) adding further DMSO, such that the final test-solution has a concentration of either 300 nM or 3000 nM of the test-compound and contains 0.3% v/v DMSO. Compound effects are quantified as % block by dividing the current in presence of compound by the baseline current; two or three experiments are performed for each compound and the final value represents the mean of the results of each experiment.

[3] = target: human CXCR3A (Homo sapiens (Human), UniProt P49682); assay: FLIPR assay (CXCL10-induced calcium signal); conditions: CHO-K1 cells expressing human CXCR3A coupled to Galpha(16); CXCL10 agonist 20 nM; mean values
Description: as §1

Sequence of hERG K channel (Q12809 whole entry): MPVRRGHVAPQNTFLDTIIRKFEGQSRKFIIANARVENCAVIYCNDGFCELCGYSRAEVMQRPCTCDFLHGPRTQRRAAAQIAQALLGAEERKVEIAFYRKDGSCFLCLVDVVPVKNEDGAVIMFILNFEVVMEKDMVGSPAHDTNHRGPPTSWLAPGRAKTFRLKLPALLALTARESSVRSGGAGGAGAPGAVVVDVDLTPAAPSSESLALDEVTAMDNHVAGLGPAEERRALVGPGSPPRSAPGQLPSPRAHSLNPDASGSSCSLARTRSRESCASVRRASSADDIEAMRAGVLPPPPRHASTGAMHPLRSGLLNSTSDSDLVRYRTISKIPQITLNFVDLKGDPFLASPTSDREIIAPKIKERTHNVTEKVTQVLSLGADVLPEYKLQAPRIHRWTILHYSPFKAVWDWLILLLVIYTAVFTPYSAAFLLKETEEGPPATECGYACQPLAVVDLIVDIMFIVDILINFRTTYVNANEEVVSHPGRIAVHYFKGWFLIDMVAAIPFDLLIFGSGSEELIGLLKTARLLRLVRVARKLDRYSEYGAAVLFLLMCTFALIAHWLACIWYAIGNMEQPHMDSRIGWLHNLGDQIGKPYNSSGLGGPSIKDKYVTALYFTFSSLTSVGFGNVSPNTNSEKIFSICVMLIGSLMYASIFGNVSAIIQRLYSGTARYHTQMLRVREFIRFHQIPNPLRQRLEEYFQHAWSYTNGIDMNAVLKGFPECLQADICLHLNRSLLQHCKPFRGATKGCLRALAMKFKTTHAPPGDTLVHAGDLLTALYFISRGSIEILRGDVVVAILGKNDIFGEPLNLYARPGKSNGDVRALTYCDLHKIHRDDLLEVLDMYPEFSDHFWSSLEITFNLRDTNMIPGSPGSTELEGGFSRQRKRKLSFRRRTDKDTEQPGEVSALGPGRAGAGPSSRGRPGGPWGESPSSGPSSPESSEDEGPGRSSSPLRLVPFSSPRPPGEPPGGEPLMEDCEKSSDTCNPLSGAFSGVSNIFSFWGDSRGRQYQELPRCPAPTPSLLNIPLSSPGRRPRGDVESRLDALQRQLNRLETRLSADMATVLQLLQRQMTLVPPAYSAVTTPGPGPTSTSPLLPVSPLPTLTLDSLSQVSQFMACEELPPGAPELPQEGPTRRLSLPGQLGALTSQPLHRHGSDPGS
Sequence of CXCR3 (P49682 whole entry): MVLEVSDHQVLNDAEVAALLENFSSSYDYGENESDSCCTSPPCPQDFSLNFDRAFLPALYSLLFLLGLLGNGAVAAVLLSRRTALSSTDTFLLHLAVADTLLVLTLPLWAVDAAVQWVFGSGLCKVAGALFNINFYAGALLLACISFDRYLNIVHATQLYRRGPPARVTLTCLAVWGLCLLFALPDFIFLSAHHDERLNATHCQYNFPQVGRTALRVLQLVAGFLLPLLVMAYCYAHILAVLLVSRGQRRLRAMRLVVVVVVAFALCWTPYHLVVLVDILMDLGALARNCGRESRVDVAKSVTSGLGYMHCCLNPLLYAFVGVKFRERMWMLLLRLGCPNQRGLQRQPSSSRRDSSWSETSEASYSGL
Sequence of human CXCR3A (P49682 whole entry): as above

IC50 [1]	IC50 [3]	Compound	% block ([2]; concentration 300 nM)	% block ([2]; concentration 3000 nM)
415 nM	6.7 nM	CC(C)(C)c1ncn(CC(=O)N2CCN(c3sc(C(F)(F)F)nc3-c3cnc(C(F)(F)F)nc3)C[C@H]2CO)n1 [Example 1, 2-(3-tert-Butyl-[1,2,4]triazol-1-yl)-1-{(S)-2-hydroxymethyl-4-[2-trifluoromethyl-4-(2-trifluoromethyl-pyrimidin-5-yl)-thiazol-5-yl]-piperazin-1-yl}-ethanone]	2%	12%
463 nM	6 nM	Cc1nc(C)n(CC(=O)N2CCN(c3sc(C(F)(F)F)nc3-c3cnc(C(F)(F)F)nc3)C[C@H]2CO)n1 [Example 2, 2-(3,5-Dimethyl-[1,2,4]triazol-1-yl)-1-{(S)-2-hydroxymethyl-4-[2-trifluoromethyl-4-(2-trifluoromethyl-pyrimidin-5-yl)-thiazol-5-yl]-piperazin-1-yl}-ethanone]	−3%	−4%
191 nM	3 nM	O=C(Cn1cnc(C2CC2)n1)N1CCN(c2sc(C(F)(F)F)nc2-c2cnc(C(F)(F)F)nc2)C[C@H]1CO [Example 3, 2-(3-Cyclopropyl-[1,2,4]triazol-1-yl)-1-{(S)-2-hydroxymethyl-4-[2-trifluoromethyl-4-(2-trifluoromethyl-pyrimidin-5-yl)-thiazol-5-yl]-piperazin-1-yl}-ethanone]	0%	12%
283 nM	1.8 nM	CC(C)c1ncn(CC(=O)N2CCN(c3sc(C(F)(F)F)nc3-c3cnc(C(F)(F)F)nc3)C[C@H]2CO)n1 [Example 4, 1-{(S)-2-Hydroxymethyl-4-[2-trifluoromethyl-4-(2-trifluoromethyl-pyrimidin-5-yl)-thiazol-5-yl]-piperazin-1-yl}-2-(3-isopropyl-[1,2,4]triazol-1-yl)-ethanone]	4%	13%
328 nM	4 nM	O=C(Cn1cnc(C(F)(F)F)n1)N1CCN(c2sc(C(F)(F)F)nc2-c2cnc(C(F)(F)F)nc2)C[C@H]1CO [Example 5, 1-{(S)-2-Hydroxymethyl-4-[2-trifluoromethyl-4-(2-trifluoromethyl-pyrimidin-5-yl)-thiazol-5-yl]-piperazin-1-yl}-2-(3-trifluoromethyl-[1,2,4]triazol-1-yl)-ethanone]	−2%	7%
778 nM	4.6 nM	CCOc1ncc(-c2nc(C(F)(F)F)sc2N2CCN(C(=O)Cn3cnc(C(F)(F)F)n3)[C@H](CO)C2)cn1 [Example 6, 1-{(S)-4-[4-(2-Ethoxy-pyrimidin-5-yl)-2-trifluoromethyl-thiazol-5-yl]-2-hydroxymethyl-piperazin-1-yl}-2-(3-trifluoromethyl-[1,2,4]triazol-1-yl)-ethanone]	13%	23%
2270 nM	3.1 nM	CCOc1ncc(-c2nc(C(F)(F)F)sc2N2CCN(C(=O)Cn3nc(C)nc3C)[C@H](CO)C2)cn1 [Example 7, 2-(3,5-Dimethyl-[1,2,4]triazol-1-yl)-1-{(S)-4-[4-(2-ethoxy-pyrimidin-5-yl)-2-trifluoromethyl-thiazol-5-yl]-2-hydroxymethyl-piperazin-1-yl}-ethanone]	24%	45%
3200 nM	10 nM	Cc1nc(C)n(CC(=O)N2CCN(c3sc(C(F)(F)F)nc3-c3cnc(C4CC4)nc3)C[C@H]2CO)n1 [Example 8, 1-{(S)-4-[4-(2-Cyclopropyl-pyrimidin-5-yl)-2-trifluoromethyl-thiazol-5-yl]-2-hydroxymethyl-piperazin-1-yl}-2-(3,5-dimethyl-[1,2,4]triazol-1-yl)-ethanone]	19%	54%
1520 nM	1.3 nM	O=C(Cn1cnc(C(F)(F)F)n1)N1CCN(c2sc(C(F)(F)F)nc2-c2cnc(C3CC3)nc2)C[C@H]1CO [Example 9, 1-{(S)-4-[4-(2-Cyclopropyl-pyrimidin-5-yl)-2-trifluoromethyl-thiazol-5-yl]-2-hydroxymethyl-piperazin-1-yl}-2-(3-trifluoromethyl-[1,2,4]triazol-1-yl)-ethanone]	8%	24%
961 nM	1.1 nM	CC(C)c1ncn(CC(=O)N2CCN(c3sc(C(F)(F)F)nc3-c3ccc(C(F)(F)F)nc3)C[C@@H]2CO)n1 [Example 10, 1-{(R)-2-Hydroxymethyl-4-[2-trifluoromethyl-4-(6-trifluoromethyl-pyridin-3-yl)-thiazol-5-yl]-piperazin-1-yl}-2-(3-isopropyl-[1,2,4]triazol-1-yl)-ethanone]	2%	12%
737 nM	4.3 nM	CC(O)c1ncn(CC(=O)N2CCN(c3sc(C(F)(F)F)nc3-c3cnc(C(F)(F)F)nc3)C[C@@H]2CO)n1 (stereo partly drawn) [Example 21, 2-[3-(1-Hydroxy-ethyl)-[1,2,4]triazol-1-yl]-1-{(R)-2-hydroxymethyl-4-[2-trifluoromethyl-4-(2-trifluoromethyl-pyrimidin-5-yl)-thiazol-5-yl]-piperazin-1-yl}-ethanone]	–	–
2730 nM	35 nM	O=C(Cn1cnc(-c2ccccn2)n1)N1CCN(c2sc(C(F)(F)F)nc2-c2cnc(C(F)(F)F)nc2)C[C@@H]1CO [Example 23, 1-{(R)-2-Hydroxymethyl-4-[2-trifluoromethyl-4-(2-trifluoromethyl-pyrimidin-5-yl)-thiazol-5-yl]-piperazin-1-yl}-2-(3-pyridin-2-yl-[1,2,4]triazol-1-yl)-ethanone]	–	–
355 nM	7.6 nM	CCc1nc(C)n(CC(=O)N2CCN(c3sc(C(F)(F)F)nc3-c3cnc(C(F)(F)F)nc3)C[C@@H]2CO)n1 [Example 24, 2-(3-ethyl-5-methyl-[1,2,4]triazol-1-yl)-1-{(R)-2-hydroxymethyl-4-[2-trifluoromethyl-4-(2-trifluoromethyl-pyrimidin-5-yl)-thiazol-5-yl]-piperazin-1-yl}-ethanone]	–	–
664 nM	3.6 nM	CCc1nc(C)nn1CC(=O)N1CCN(c2sc(C(F)(F)F)nc2-c2cnc(C(F)(F)F)nc2)C[C@@H]1CO [Example 25, 2-(5-ethyl-3-methyl-[1,2,4]triazol-1-yl)-1-{(R)-2-hydroxymethyl-4-[2-trifluoromethyl-4-(2-trifluoromethyl-pyrimidin-5-yl)-thiazol-5-yl]-piperazin-1-yl}-ethanone]	–	–
74.2 nM	3.5 nM	O=C(Cn1cnc2cccnc21)N1CCN(c2sc(C(F)(F)F)nc2-c2cnc(C(F)(F)F)nc2)C[C@@H]1CO [Example 26, 1-{(R)-2-Hydroxymethyl-4-[2-trifluoromethyl-4-(2-trifluoromethyl-pyrimidin-5-yl)-thiazol-5-yl]-piperazin-1-yl}-2-imidazo[4,5-b]pyridin-3-yl-ethanone]	–	–
258 nM	8.6 nM	O=C(Cn1cnc(C(F)F)n1)N1CCN(c2sc(C(F)(F)F)nc2-c2cnc(C(F)(F)F)nc2)C[C@@H]1CO [Example 38, 2-(3-Difluoromethyl-[1,2,4]triazol-1-yl)-1-{(R)-2-hydroxymethyl-4-[2-trifluoromethyl-4-(2-trifluoromethyl-pyrimidin-5-yl)-thiazol-5-yl]-piperazin-1-yl}-ethanone]	–	–
